Calls of active or inactive are those of the source.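 The calls were made as follows: active = in confirmatory dose-response testing, peak deubiquitinase inhibition of 30% or more; inactive = the rest.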
molecular target: Ubiquitin carboxyl-terminal hydrolase 28 (Homo sapiens) (UniProt Q96RU2); assay: Ubiquitin-specific peptidase 28 DUB inhibitors, biochemical concentration-dependence assay, validation of primary screening hits (AID 1645866); details: purified USP28, ubiquitin-rhodamine fluorescence, 30 min
Sequence (Q96RU2 whole entry, looked up): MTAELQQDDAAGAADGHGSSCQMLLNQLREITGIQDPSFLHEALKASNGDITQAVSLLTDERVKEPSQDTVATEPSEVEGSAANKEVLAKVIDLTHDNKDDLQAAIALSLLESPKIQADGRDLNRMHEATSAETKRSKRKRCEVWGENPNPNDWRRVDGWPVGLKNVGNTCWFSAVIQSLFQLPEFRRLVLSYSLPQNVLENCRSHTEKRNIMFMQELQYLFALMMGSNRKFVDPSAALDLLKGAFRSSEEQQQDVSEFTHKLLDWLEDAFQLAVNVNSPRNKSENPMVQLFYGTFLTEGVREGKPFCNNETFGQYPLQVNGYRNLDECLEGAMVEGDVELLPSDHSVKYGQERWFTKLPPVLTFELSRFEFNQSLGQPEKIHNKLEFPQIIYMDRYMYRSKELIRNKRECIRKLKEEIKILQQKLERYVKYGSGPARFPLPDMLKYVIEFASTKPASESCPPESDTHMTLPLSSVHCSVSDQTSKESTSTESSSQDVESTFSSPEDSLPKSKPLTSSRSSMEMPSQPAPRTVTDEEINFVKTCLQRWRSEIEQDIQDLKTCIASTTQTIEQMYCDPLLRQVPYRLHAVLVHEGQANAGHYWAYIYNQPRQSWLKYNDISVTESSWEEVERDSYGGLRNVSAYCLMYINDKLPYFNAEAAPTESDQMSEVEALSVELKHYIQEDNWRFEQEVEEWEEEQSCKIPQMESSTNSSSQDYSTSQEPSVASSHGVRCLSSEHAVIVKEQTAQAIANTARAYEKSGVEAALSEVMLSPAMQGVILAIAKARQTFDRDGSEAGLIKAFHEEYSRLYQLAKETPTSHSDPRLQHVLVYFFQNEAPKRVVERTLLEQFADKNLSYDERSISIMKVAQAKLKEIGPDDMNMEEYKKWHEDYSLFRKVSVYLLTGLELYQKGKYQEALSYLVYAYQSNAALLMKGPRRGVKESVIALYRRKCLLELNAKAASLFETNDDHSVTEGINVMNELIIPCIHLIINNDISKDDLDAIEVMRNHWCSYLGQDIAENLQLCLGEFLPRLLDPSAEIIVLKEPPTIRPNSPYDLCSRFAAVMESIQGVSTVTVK

IC50	SMILES
5.44 µM	O=C(COc1ccc(Cl)cc1Cl)Nc1ccc2[nH]c(=O)[nH]c2c1
19.7 µM	COc1ccc(NC(=O)Cn2cc(C(=O)c3ccc(F)cc3)c(=O)c3cc(C)ccc32)cc1
28.6 µM	O=C(COc1cc([N+](=O)[O-])cc2cccnc12)NCCC1=CCCCC1
40.5 µM	CC(=O)c1ccc(NC(=O)/C(=C/c2ccco2)n2nnnc2-c2ccccc2)cc1
> 50 µM (inactive)	Cc1nn(CC(=O)NCc2ccccc2F)c2ccccc12
13.3 µM	CC1CC(=O)N(Cc2ccc([N+](=O)[O-])cc2)c2ccccc2S1 (stereo unspecified)
> 50 µM (inactive)	Nc1nc(-c2ccc[nH]2)cs1
> 50 µM (inactive)	COc1cccc(-c2nc3cnccn3c2NCc2ccc3c(c2)OCO3)c1
0.641 µM	Cc1ccc(-n2c(-c3ccccc3)cn3c4c(=O)[nH]c(=O)n(C)c4nc23)cc1C
> 50 µM (inactive)	COc1ccc(/C=C\c2nccc3c2[nH]c2ccccc23)cc1
27.5 µM	O=C(/C=C/c1ccc2c(c1)OCO2)Nc1nc2c(s1)COCC2
21.9 µM	Cc1nc(N2CCCC2)ncc1-c1cc(=O)[nH]c(N2CCc3ccccc3C2)n1
22.8 µM	Cc1nn(-c2ccc(F)cc2)cc1-c1noc(C(=O)NCc2ccccn2)n1
25.1 µM	O=C(Nc1cccc(Cl)c1)N1CCN(c2cc(C(F)(F)F)ccn2)CC1
2.4 µM	O=C(Nc1ccc2c(c1)OCO2)C1CCN(Cc2nc3ccccc3s2)CC1
5.78 µM	CN(C)C(=O)CSc1nnc(-c2cccc(Cl)c2)n1-c1ccc(Cl)c(C(F)(F)F)c1
> 50 µM (inactive)	CN[C@H]1CC2(CCN(C(=O)CCCn3cccn3)CC2)OC[C@]1(C)O
8.61 µM	CC(C)NC(=O)Cn1ccn2nc(-c3ccc(Cl)cc3)cc2c1=O
> 50 µM (inactive)	Cc1cc(O)c(=O)cc2c1C[C@H]1CC(C)(C)/C=C/C[C@@]3(C)Oc4cc(=O)c(O)cc(C)c4C[C@@H]3C[C@H](O)[C@]1(C)O2
24.3 µM	O=C1C[C@@H](O)[C@H](O)[C@@]23O[C@@]12C1(Oc2cccc4cccc(c24)O1)[C@@H]1O[C@@H]1[C@@H]3O
> 50 µM (inactive)	COc1ccc(-c2nnc(SCc3ccccc3C#N)o2)c(OC)c1
34.9 µM	CC1(C)Cc2c(c(-c3ccco3)nc3sc4c(SCCCc5ccccc5)ncnc4c23)CO1
> 50 µM (inactive)	COc1cc2cc3c(c(O)c2c(O)c1-c1c(OC)cc2cc4c(c(O)c2c1O)C(=O)OC1CC(C)OC41)C(=O)OC1CC(C)OC31 (stereo unspecified)
33.9 µM	COC(=O)c1ccc(NC(=O)CSc2nnc(-c3ccc(O)cc3)n2Cc2ccco2)cc1
< 0.05 µM	CCCc1nc2sc3c(NCc4ccco4)ncnc3c2c2c1CCC2

IC50	SMILES
> 50 µM (inactive)	CCN(C(=O)c1cc2c(Cl)nc3ccccc3c2s1)c1ccccc1F
15.9 µM	O=C(Nc1cc(Cl)cc(Cl)c1)c1csnn1
12.2 µM	Cn1cc(-c2noc(Cc3cccc(C(F)(F)F)c3)n2)ccc1=O
> 50 µM (inactive)	O=C(O)Cc1ccc(Nc2nc3ccccc3n3nnnc23)cc1
> 50 µM (inactive)	COc1ccc(C(=O)CSc2nnc(-c3cccnc3)n2-c2ccccc2)cc1
4.61 µM	CCN1C(=O)c2cccnc2Sc2cc(NC(=O)c3ccc(Cl)s3)ccc21
> 50 µM (inactive)	O=C(O)COc1ccccc1/C=C1\CCc2c1nc1ccccc1c2C(=O)O
> 50 µM (inactive)	CC(=O)N1Cc2ccccc2CC2(CCCN(CC3CCOCC3)C2)C1 (stereo unspecified)
> 50 µM (inactive)	CCN(CC)C(=O)CN1CCCC(c2ncncc2-c2cc(C)no2)C1 (stereo unspecified)
21.2 µM	O=C(Nc1cccc(S(=O)(=O)N2CCCC2)c1)c1ccc2c(=O)n3c(nc2c1)CCCCC3
3.43 µM	COc1ccc(Cn2c(=O)[nH]c3cc(C(=O)NCCCN4CCN(c5cccc(Cl)c5)CC4)ccc3c2=O)cc1
> 50 µM (inactive)	Cn1cc2cccc(NC(=O)c3ccc(F)cc3)c2n1
> 50 µM (inactive)	COc1ccccc1OCC(=O)Nc1ccc2c(c1)CCC(=O)N2Cc1ccccc1
25.3 µM	COc1ccc(-n2ccn3c(CCC(=O)NCc4ccc(F)cc4)nnc3c2=O)cc1
24.9 µM	O=C(COc1ccc2oc3c(c2c1)CCCC3)Nc1ccccn1
0.14 µM	COc1cccc(C(=O)Oc2ccc3c(=O)c(-c4ccc(OC)c(OC)c4)coc3c2)c1
1.93 µM	O=C(Nc1nc2ccccc2s1)c1ccc2c(c1)C(=O)N(Cc1cccnc1)C2=O
26.5 µM	CCOC(=O)c1nc(Nc2ccc(OC)c(Cl)c2)c2ccccc2n1
24 µM	O=C(COc1ncnc2ccccc12)Nc1ccc2c(c1)OC1(CCCC1)O2
34.7 µM	Cc1ccc(C)c(NS(=O)(=O)c2cc(-c3cnc(C4CC4)o3)ccc2C)c1
16 µM	COc1ccc(-c2cc(N3CCC(NC(=O)c4ccccc4)C3)n[nH]2)cc1 (stereo unspecified)
11.9 µM	COc1ccc(CNC(=O)CN2C(=O)CC(c3ccccc3)=Nc3ccccc32)cc1
41 µM	COc1ccc(S(=O)(=O)Nc2ccc(Nc3ccc(-n4cccn4)nn3)cc2)cc1
7.75 µM	Cc1ccccc1NC(=O)C(C)n1c(=O)cc(-c2ccccc2)c2c(C)nn(C)c21 (stereo unspecified)
> 50 µM (inactive)	CC1=CN2C(=N)/C(=C/c3cn(Cc4ccc(Cl)cc4)c4ccccc34)C(=O)N=C2S1

IC50	SMILES
12.6 µM	CCN1C(SCc2ccccc2F)=NS(=O)(=O)c2ccccc21
30.1 µM	COc1cc(O)c2c(c1)C1=CC(=O)C(O)=C[C@]1(C)OC2=O
> 50 µM (inactive)	CC(C)(C)N=C1Nc2ncccc2NC12CCCN(C(=O)c1ccccc1)C2 (stereo unspecified)
42.2 µM	Cn1c(=O)[nH]c(=O)c2c1nc1n(CCc3ccccc3)c(-c3ccccc3)cn21
11.3 µM	Cc1cccc(NC(=O)Nc2nnc(CC(=O)NCc3ccccc3)s2)c1
12.2 µM	COc1ccc(NC(=O)c2nnc(C(=O)NCCN3CCCCCC3)s2)cc1
26.4 µM	COc1ccc(CN2CCCC23CCCN(C(=O)CCc2cccnc2)C3)cc1F (stereo unspecified)
20.8 µM	COc1ccc(NC(=O)Cn2c(CSc3ccc(C)cc3)nc3ccccc32)cc1
> 50 µM (inactive)	Cc1ccccc1C(=O)OCCN1C(=O)c2cccc3c(N4CCCCC4)ccc(c23)C1=O
> 50 µM (inactive)	Cc1nnc(-c2nnc(NCc3ccc(Cl)cc3)c3ccccc23)o1
34.4 µM	O=C(c1ccco1)N1CCC2(CC1)CC1(CO2)Nc2ccccc2-n2cccc21 (stereo unspecified)
3.7 µM	CCC(=O)Nc1ccc(-c2nc(Cn3cc(C)cn3)c(C)o2)cc1
21.7 µM	COc1ccc(NC(=O)C2CC(=O)Nc3cc(-c4ccccc4)nn32)cc1 (stereo unspecified)
5.14 µM	CC(C)c1ccc(NC(=O)c2cc3ncc(Br)cn3n2)cc1
30.9 µM	CC(C)(C)c1ccc(Cn2nnc3c(=O)[nH]c(C4CCN(S(=O)(=O)c5ccc(S(=O)(=O)NC6CC6)cc5)CC4)nc32)cc1
9.13 µM	COc1ccc(S(=O)(=O)N2CCc3ccccc32)cc1C(=O)Nc1ccc2[nH]c(=O)[nH]c2c1
40.5 µM	COc1cccc(-c2cc(C(=O)Nc3cc(C)n(Cc4ccc(Cl)cc4)n3)no2)c1
4.31 µM	COc1ccccc1Nc1ncc(C(=O)NCCc2ccc(Cl)cc2)c2ccccc12
21.9 µM	CCCc1nc2c(sc3nc4c(cc32)COC(C)(C)C4)c(=O)n1CC(=O)Nc1ccccc1C
24.8 µM	CC(C)c1cc(Nc2cccc(F)c2)n2nc(-c3cccnc3)nc2n1
26.4 µM	CCc1ccc(-n2nc(C)c3c2NC(=O)CC3C(=O)c2ccc3c(c2)OCCO3)cc1 (stereo unspecified)
> 50 µM (inactive)	Cc1ccc(-n2cc3c(N4CCCC(C(=O)NCC5CCCCC5)C4)ncnc3n2)cc1 (stereo unspecified)
> 50 µM (inactive)	COc1ccc2nc3c(cc2c1)c(=O)n(C)c1c3c(=O)n(-c2ccccc2)c(=O)n1-c1ccccc1
36.5 µM	O=C(NC1(O)C(=O)c2ccccc2C1=O)c1ccc(-c2csnn2)cc1
> 50 µM (inactive)	O=S(=O)(c1ccc2c(c1)OCCO2)N(Cc1ccccc1)Cc1nnc(-c2ccccc2)o1

IC50	SMILES
20.7 µM	COc1cc(=O)c(C(=O)Nc2ccc(C#N)cc2)nn1-c1cccc(F)c1
1.75 µM	FC(F)(F)c1cccc(CSc2ccc3nnc(-c4ccccn4)n3n2)c1
26.5 µM	Cc1cc(NC(=O)COc2ccc3oc4ccccc4c3c2)no1
14.1 µM	CCOc1ccc2[nH]c(=O)c(CN(C(=O)c3cccs3)C3CCCC3)cc2c1
> 50 µM (inactive)	O=C(NCc1cccnc1)c1cnn2c(C(F)(F)F)cc(-c3ccccc3)nc12
2.93 µM	CCOc1ccc2cc3c(nc2c1)OC(=O)N(Cc1ccc(C)o1)C3
1.03 µM	Cc1cc(NC(=O)c2cc(-c3cccnc3)n[nH]2)ccc1Br
36.2 µM	Cc1cc(C(=O)CSc2nc3ccccc3[nH]2)c(C)n1Cc1ccco1
27.3 µM	Cc1nc(-c2cccc(NC(=O)C3CCN(c4ccccc4)C3=O)c2)no1 (stereo unspecified)
2.74 µM	CC(C)CC[C@H]1O[C@@H](CC(=O)O)Cc2cc3c(c(O)c21)C(=O)c1sc(=O)n(C)c1C3=O
8.65 µM	COc1cccc(CNC(=O)C2=Cc3cccc(OC)c3OC2)c1
2.58 µM	Cc1ccc(CNC(=O)Cn2cnc3c(cnn3-c3cccc(Cl)c3)c2=O)cc1
1.52 µM	CN(Cc1ccccc1)S(=O)(=O)c1ccc2[nH]cc(C(=O)NCc3cccs3)c(=O)c2c1
12 µM	O=C(NCc1ccc2c(c1)OCO2)c1cc(-c2cc(Cl)ccc2O)n[nH]1
> 50 µM (inactive)	c1cnc(-c2n[nH]c(C3CCN(C4CCNC4)CC3)n2)cn1 (stereo unspecified)
> 50 µM (inactive)	COc1ccc(-c2ccnc(-c3ccc(OCc4cccc(F)c4)cc3)n2)cc1
12.1 µM	FC(F)(F)c1cccc(Nc2nnc(-c3cccnc3)s2)c1
2.11 µM	CC(NC(=O)c1ccccc1)c1nc2ccccc2n1CC(=O)Nc1ccc2c(c1)OCO2 (stereo unspecified)
6.27 µM	c1ccc(-c2ccc(NCc3ccc4c(c3)OCO4)nn2)cc1
16 µM	CCOc1ccc(NS(=O)(=O)c2ccc(NC(=O)Nc3ccccc3)cc2)cc1
> 50 µM (inactive)	N#C/C(=C/c1sc(N2CCOCC2)nc1-c1ccccc1)c1ccccn1
32.7 µM	COCCNC(=O)Cn1c(=O)n(Cc2ccccc2)c(=O)c2c3c(sc21)CCC3
> 50 µM (inactive)	COc1cccc(N2CCN(C(=O)CCNS(=O)(=O)c3ccc4c(c3)CCC(=O)N4)CC2)c1
4.91 µM	COc1ccc(Nc2nc(C(=O)NCc3ccc4c(c3)OCO4)cc3occc23)cc1
24.4 µM	COc1ccc(C)cc1NC(=O)C1CC(=O)Nc2nc3ccccc3n21 (stereo unspecified)

SMILES	IC50
COc1cc([C@@H]2c3cc4c(cc3C[C@@H]3COC(=O)[C@H]32)OCO4)cc(OC)c1OC	18.7 µM

Reference: PubChem BioAssay AID1645866 (Buhrlage Lab, Dana-Farber Cancer Institute and Novartis …, 2021)
